Experimental data published in ChEMBL document CHEMBL3784933, “Synthesis and antitumor evaluation of trimethoxyanilides based on 4(3H)-quinazolinone scaffolds” (2016).

Assays:
Type in all cases: functional
NCI-H522 = assay: Cytotoxicity against human NCI-H522 cells assessed as growth inhibition at 10 uM after 48 hrs by SRB assay; details: NCI-H522, 48 h, read-out: GI
SR = assay: Cytotoxicity against human SR cells assessed as growth inhibition at 10 uM after 48 hrs by SRB assay; details: read-out: GI
[1] = Cytotoxicity against human UO31 cells assessed as growth inhibition at 10 uM after 48 hrs by SRB assay; details: UO-31, 48 h, read-out: GI
A549 = assay: Cytotoxicity against human A549 cells assessed as growth inhibition at 10 uM after 48 hrs by SRB assay; details: A549, 48 h, read-out: GI
[2] = Cytotoxicity against human Caki1 cells assessed as growth inhibition at 10 uM after 48 hrs by SRB assay; details: CAKI-1, 48 h, read-out: GI
[3] = Cytotoxicity against human RPMI8226 cells assessed as growth inhibition at 10 uM after 48 hrs by SRB assay; details: RPMI-8226, 48 h, read-out: GI
T47D = assay: Cytotoxicity against human T47D cells assessed as growth inhibition at 10 uM after 48 hrs by SRB assay; details: read-out: GI
[4] = Cytotoxicity against human PC3 cells assessed as growth inhibition at 10 uM after 48 hrs by SRB assay; details: PC-3, 48 h, read-out: GI
MDA-MB-231 = assay: Cytotoxicity against human MDA-MB-231 cells assessed as growth inhibition at 10 uM after 48 hrs by SRB assay; details: MDA-MB-231, 48 h, read-out: GI
[5] = Cytotoxicity against human SNB75 cells assessed as growth inhibition at 10 uM after 48 hrs by SRB assay; details: SNB-75, 48 h, read-out: GI
[6] = Cytotoxicity against human HOP62 cells assessed as growth inhibition at 10 uM after 48 hrs by SRB assay; details: HOP-62, 48 h, read-out: GI
A498 = assay: Cytotoxicity against human A498 cells assessed as growth inhibition at 10 uM after 48 hrs by SRB assay; details: A498, 48 h, read-out: GI
K562 = assay: Cytotoxicity against human K562 cells assessed as growth inhibition at 10 uM after 48 hrs by SRB assay; details: K562, 48 h, read-out: GI
[7] = Cytotoxicity against human HOP92 cells assessed as growth inhibition at 10 uM after 48 hrs by SRB assay; details: HOP-92, 48 h, read-out: GI
U-251 = assay: Cytotoxicity against human U251 cells assessed as growth inhibition at 10 uM after 48 hrs by SRB assay; details: U-251, 48 h, read-out: GI
[8] = Cytotoxicity against human SF268 cells assessed as growth inhibition at 10 uM after 48 hrs by SRB assay; details: SF-268, 48 h, read-out: GI
[9] = Cytotoxicity against human LOXIMVI cells assessed as growth inhibition at 10 uM after 48 hrs by SRB assay; details: LOX IMVI, read-out: GI
[10] = Cytotoxicity against human OVCAR4 cells assessed as growth inhibition at 10 uM after 48 hrs by SRB assay; details: OVCAR-4, 48 h, read-out: GI
CCRF-CEM = assay: Cytotoxicity against human CCRF-CEM cells assessed as growth inhibition at 10 uM after 48 hrs by SRB assay; details: read-out: GI
SK-MEL-5 = assay: Cytotoxicity against human SK-MEL-5 cells assessed as growth inhibition at 10 uM after 48 hrs by SRB assay; details: SK-MEL-5, 48 h, read-out: GI
[11] = Cytotoxicity against human NCI-ADR-RES cells assessed as growth inhibition at 10 uM after 48 hrs by SRB assay; details: read-out: GI
[12] = Cytotoxicity against human Hs 578T cells assessed as growth inhibition at 10 uM after 48 hrs by SRB assay; details: read-out: GI
[13] = Cytotoxicity against human BT549 cells assessed as growth inhibition at 10 uM after 48 hrs by SRB assay; details: BT-549, 48 h, read-out: GI
[14] = Cytotoxicity against human SF295 cells assessed as growth inhibition at 10 uM after 48 hrs by SRB assay; details: SF-295, 48 h, read-out: GI
Malme-3M = assay: Cytotoxicity against human MALME-3M cells assessed as growth inhibition at 10 uM after 48 hrs by SRB assay; details: read-out: GI
EKVX = assay: Cytotoxicity against human EKVX cells assessed as growth inhibition at 10 uM after 48 hrs by SRB assay; details: read-out: GI
[15] = Cytotoxicity against human UACC62 cells assessed as growth inhibition at 10 uM after 48 hrs by SRB assay; details: UACC-62, 48 h, read-out: GI
MCF7 = assay: Cytotoxicity against human MCF7 cells assessed as growth inhibition at 10 uM after 48 hrs by SRB assay; details: MCF7, 48 h, read-out: GI
SN12C = assay: Cytotoxicity against human SN12C cells assessed as growth inhibition at 10 uM after 48 hrs by SRB assay; details: read-out: GI
ACHN = assay: Cytotoxicity against human ACHN cells assessed as growth inhibition at 10 uM after 48 hrs by SRB assay; details: read-out: GI
[16] = Cytotoxicity against human MOLT4 cells assessed as growth inhibition at 10 uM after 48 hrs by SRB assay; details: MOLT-4, 48 h, read-out: GI
NCI-H23 = assay: Cytotoxicity against human NCI-H23 cells assessed as growth inhibition at 10 uM after 48 hrs by SRB assay; details: NCI-H23, 48 h, read-out: GI
NCI-H226 = assay: Cytotoxicity against human NCI-H226 cells assessed as growth inhibition at 10 uM after 48 hrs by SRB assay; details: NCI-H226, 48 h, read-out: GI
[17] = Cytotoxicity against human NCI-H322 cells assessed as growth inhibition at 10 uM after 48 hrs by SRB assay; details: NCI-H322, 48 h, read-out: GI
[18] = Cytotoxicity against human SNB19 cells assessed as growth inhibition at 10 uM after 48 hrs by SRB assay; details: SNB-19, 48 h, read-out: GI
[19] = Cytotoxicity against human SF539 cells assessed as growth inhibition at 10 uM after 48 hrs by SRB assay; details: SF-539, 48 h, read-out: GI
[20] = Cytotoxicity against human HCT116 cells assessed as growth inhibition at 10 uM after 48 hrs by SRB assay; details: HCT-116, 48 h, read-out: GI
786-0 = assay: Cytotoxicity against human 786-0 cells assessed as growth inhibition at 10 uM after 48 hrs by SRB assay; details: 786-0, 48 h, read-out: GI
[21] = Cytotoxicity against human HCT15 cells assessed as growth inhibition at 10 uM after 48 hrs by SRB assay; details: HCT-15, 48 h, read-out: GI
[22] = Cytotoxicity against human RXF393 cells assessed as growth inhibition at 10 uM after 48 hrs by SRB assay; details: RXF 393, 48 h, read-out: GI
[23] = Cytotoxicity against human UACC257 cells assessed as growth inhibition at 10 uM after 48 hrs by SRB assay; details: UACC-257, 48 h, read-out: GI
MDA-MB-468 = assay: Cytotoxicity against human MDA-MB-468 cells assessed as growth inhibition at 10 uM after 48 hrs by SRB assay; details: MDA-MB-468, 48 h, read-out: GI

SMILES | inhibition of growth at 10 µM (NCI-H522) | inhibition of growth at 10 µM (SR) | inhibition of growth at 10 µM [1] | inhibition of growth at 10 µM (A549) | inhibition of growth at 10 µM [2] | inhibition of growth at 10 µM [3] | inhibition of growth at 10 µM (T47D) | inhibition of growth at 10 µM [4] | inhibition of growth at 10 µM (MDA-MB-231) | inhibition of growth at 10 µM [5] | inhibition of growth at 10 µM [6] | inhibition of growth at 10 µM (A498) | inhibition of growth at 10 µM (K562) | inhibition of growth at 10 µM (U-251) | inhibition of growth at 10 µM [9] | inhibition of growth at 10 µM [10] | inhibition of growth at 10 µM (CCRF-CEM) | inhibition of growth at 10 µM (SK-MEL-5) | inhibition of growth at 10 µM [12] | inhibition of growth at 10 µM [15] | other results
COc1cc2nc(SCCC(=O)Nc3cc(OC)c(OC)c(OC)c3)n(-c3ccccc3)c(=O)c2cc1OC | 15% | 13% | 25% | 14% | 12% | 25% | 14% | 18% | 14% | 39% |  |  |  |  |  |  |  |  |  |  | 
COc1cc2nc(SCCC(=O)Nc3cc(OC)c(OC)c(OC)c3)n(-c3ccc(F)cc3)c(=O)c2cc1OC |  |  |  |  |  |  |  |  |  |  | 11% | 22% | 11% | 12% |  |  |  |  |  |  | inhibition of growth at 10 µM [7]: 13%
COc1cc(NC(=O)CSc2nc3ccc(Cl)cc3c(=O)n2-c2ccccc2)cc(OC)c1OC | 16% |  | 50% | 12% | 17% |  | 15% | 20% | 17% | 29% | 15% | 54% |  |  | 10% | 15% | 30% | 17% | 19% | 25% | inhibition of growth at 10 µM [8]: 10%; inhibition of growth at 10 µM [11]: 10%; inhibition of growth at 10 µM [13]: 22%; inhibition of growth at 10 µM [14]: 13%; inhibition of growth at 10 µM (Malme-3M): 12%; inhibition of growth at 10 µM (EKVX): 24%
COc1cc(NC(=O)CCSc2nc3ccccc3c(=O)n2-c2ccccc2)cc(OC)c1OC | 49% | 17% | 44% | 15% | 22% | 36% | 23% | 39% | 41% |  |  | 46% | 31% | 10% | 10% | 24% | 19% |  |  | 17% | inhibition of growth at 10 µM (MCF7): 16%; inhibition of growth at 10 µM (SN12C): 18%; inhibition of growth at 10 µM (ACHN): 18%; inhibition of growth at 10 µM [16]: 15%; inhibition of growth at 10 µM [14]: 13%
COc1cc(NC(=O)CSc2nc3ccccc3c(=O)n2-c2ccc(F)cc2)cc(OC)c1OC | 19% |  | 42% |  | 12% | 14% | 23% |  | 24% | 10% |  | 72% | 14% |  | 10% |  |  | 11% | 10% | 19% | inhibition of growth at 10 µM [8]: 10%; inhibition of growth at 10 µM (NCI-H23): 10%; inhibition of growth at 10 µM [16]: 18%; inhibition of growth at 10 µM [7]: 43%; inhibition of growth at 10 µM (EKVX): 13%
COc1cc(NC(=O)CCSc2nc3ccc(Cl)cc3c(=O)n2-c2ccccc2)cc(OC)c1OC |  | 18% |  |  |  |  |  |  | 10% | 21% |  | 22% |  |  |  | 15% |  |  |  |  | 
COc1cc(NC(=O)CCSc2nc3ccc(Cl)cc3c(=O)n2-c2ccc(F)cc2)cc(OC)c1OC | 55% | 23% | 51% | 28% | 34% | 47% | 27% | 51% | 42% | 59% |  | 88% | 22% | 16% | 24% |  | 24% | 20% | 34% | 22% | inhibition of growth at 10 µM (MCF7): 21%; inhibition of growth at 10 µM (NCI-H226): 18%; inhibition of growth at 10 µM (SN12C): 18%; inhibition of growth at 10 µM (ACHN): 21%; inhibition of growth at 10 µM [17]: 16%; inhibition of growth at 10 µM [8]: 19%; inhibition of growth at 10 µM [18]: 15%; inhibition of growth at 10 µM [19]: 10%; inhibition of growth at 10 µM [20]: 13%; inhibition of growth at 10 µM (786-0): 19%; inhibition of growth at 10 µM [21]: 16%; inhibition of growth at 10 µM [13]: 12%; inhibition of growth at 10 µM [16]: 28%; inhibition of growth at 10 µM [22]: 25%; inhibition of growth at 10 µM [14]: 30%; inhibition of growth at 10 µM [23]: 25%; inhibition of growth at 10 µM (MDA-MB-468): 17%
COc1cc(NC(=O)CSc2nc3ccccc3c(=O)n2-c2ccccc2)cc(OC)c1OC | 11% |  | 48% |  | 20% |  | 18% | 15% | 23% | 27% | 12% | 54% |  |  |  | 12% | 22% | 16% | 14% | 19% | inhibition of growth at 10 µM (NCI-H226): 23%; inhibition of growth at 10 µM (ACHN): 11%; inhibition of growth at 10 µM [22]: 12%; inhibition of growth at 10 µM (Malme-3M): 11%; inhibition of growth at 10 µM (EKVX): 24%
COc1cc2nc(SCC(=O)Nc3cc(OC)c(OC)c(OC)c3)n(-c3ccc(F)cc3)c(=O)c2cc1OC | 15% |  | 38% |  |  |  | 20% |  |  |  |  |  |  |  | 14% |  | 15% |  |  | 18% | 
